Assay results taken from patent publication US4741899A, “Process for arresting the proliferation of organisms that convert axillary secretions to malodorous materials” (Bristol-Myers Company, priority 1983, dated 1988).
Where a name gives a salt, the structure may show the parent alone.

Legend:
Staph (Axilla) = experiment: In vitro minimum inhibitory (bactericidal) concentration, Staph (Axilla); assay type: cell-based, staphylococci; conditions: 24 hrs. at 35° C., subculture further 24 hrs.; liquid culture medium
Method: (§1) To test the activity of the compounds employed in the present invention in arresting the proliferation of axillary organisms (e.g. corynebacteria and staphylococci) the following in vitro study was carried out:
(§2) Aqueous solutions (or suspensions) were prepared for each test substance. Serial two-fold dilutions of the above were then made in liquid culture medium. Each tube (10 ml of liquid) in the dilution series was inoculated with 0.2 ml of a 1:500 dilution of 24 hr. culture of bacteria. After 24 hrs. at 35° C., tubes showing turbidity (growth) were noted. All non-turbid dilutions were subcultured to liquid growth medium and incubated an additional 24 hrs. at 35° C. The lowest concentration of substance which yielded no growth upon subculture was noted as the minimum inhibitory (bactericidal) concentration (=MIC).
(§3) The numbers appearing in columns 2 and 3 give the minimum inhibitory concentration in percent (MIC %) for the materials tested i.e. the minimum concentration in percent of the agent tested which will inhibit the proliferation of the test organisms. The entries in the last column are judgments with respect to the activity of the agent tested.

Diphth (Axilla) = experiment: In vitro minimum inhibitory (bactericidal) concentration, Diphth (Axilla); assay type: cell-based, aerobic diphtheroids (corynebacteria); conditions: 24 hrs. at 35° C., subculture further 24 hrs.; liquid culture medium
Method: as §1, §2, §3

[1] = tested on: axillary organisms (e.g. corynebacteria and staphylococci); experiment: In vitro Studies - Summary, judgment of activity against axillary organisms; assay type: cell-based; conditions: Staph and Diphth (Axilla)
Method: as §1, §2, §3

| SMILES | MIC (%) - cidal, Staph (Axilla) (Staph (Axilla)) [%] | MIC (%) - cidal, Diphth (Axilla) (Diphth (Axilla)) [%] | Comments (judgment with respect to the activity of the agent tested) [1] |
| --- | --- | --- | --- |
| CC(CNC1CCCCC1)OC(=O)c1ccccc1 (stereo not drawn) [Hexylcaine HCl] | 0.16 | 0.16 |  |
| c1ccc2c(CC3=NCCN3)cccc2c1 [Naphazoline HCl] | 0.31 | 0.31 |  |
| CN1CCC2=C(C1)C(c1ccccc1)c1ccccc12 (stereo not drawn) [Phenindamine tartrate] | 0.04 | 0.08 | Good Activity |
| COc1ccc(CN(CCN(C)C)c2ccccn2)cc1 [Pyrilamine maleate] | 0.63 | 0.63 |  |
| CCCCNc1ccc(C(=O)OCCN(C)C)cc1 [Tetracaine HCl] | 0.08 | 0.08 |  |
| CN(C)CCN(Cc1ccccc1)c1ccccn1 [Tripelennamine HCl] | 0.63 | 0.31 |  |
| Cc1cc(C(C)(C)C)cc(C)c1CC1=NCCN1 [Xylometazoline HCl] | 0.08 | 0.04 |  |
